The source of these data is ChEMBL document CHEMBL4177679, “The identification of a novel lead class for phosphodiesterase 2 inhibition by fragment-based drug design” (Bioorg Med Chem Lett, 2017).

SMILES strings stand for the structures. Values after ≈ are worked out from the molar mass of the structure shown.

Series [1] is described as follows: Solubility of the compound at pH 6.5. The series is classed as physicochemical. The following applies: buffer.
The test system of series [2] is Rattus norvegicus. The series can be described thus: Volume of distribution in po dosed rat. Particulars: in vivo. Type of series: ADME, organism-based.
A further series has as its system rat MDR1A. Kind of series: Apparent permeability in pig LLC-PK1 expressing rat MDR1A. The series is classed as ADME, cell-based, Sus scrofa.
The test system of series [3] is Rattus norvegicus. Kind of series: Dose normalized AUC in po dosed rat. The series is classed as ADME, organism-based. The following applies: in vivo.
Series [4] can be described thus: Clearance in po dosed rat. The series is classed as ADME, organism-based. The following applies: in vivo.
A short description of series [5]: Half-life in po dosed rat. The series is classed as ADME, organism-based. The following applies: in vivo.
Series [6] in a line: Oral bioavailability in rat. Type of series: ADME, organism-based. The following applies: in vivo.

Regarding `Cn1ncc2c(NC3(c4ccc(C(F)(F)F)cc4)CC3)nc(O)nc21`, the concentration in solution in series [1] (solubility) was 175 µM (≈ 61.1 µg/mL). Same read-out and setting: to `Cn1ncc2c(NCc3ccc(C(F)(F)F)cn3)nc(Cl)nc21` belongs 176 µM (≈ 60.3 µg/mL); to `Cn1ncc2c(NC(C)(C)c3ccc(C(F)(F)F)cc3)nc(Cl)nc21`, 183 µM (≈ 67.7 µg/mL). The same measure, in the same setting: the result for `Cn1ncc2c(NCCc3ccc(C(F)(F)F)cc3)nc(Cl)nc21` reads 150 µM (≈ 53.4 µg/mL). The same measure, in the same setting: the result for `Cn1ncc2c(NC3(c4ccc(C(F)(F)F)cc4)CC3)nc(Cl)nc21` reads 156 µM (≈ 57.4 µg/mL); that for `Cn1ncc2c(NCc3ccc(C(F)(F)F)cc3)nc(Cl)nc21`, 164 µM (≈ 56 µg/mL); that for `Cn1ncc2c(N3CCCCC3c3ccc(C(F)(F)F)cc3)nc(Cl)nc21` (configuration not stated), 138 µM (≈ 54.6 µg/mL).

`C[C@@H](Nc1nc(Cl)nc2c1cnn2C)c1ccc(C(F)(F)F)cc1` registered a solubility in series [1] of 159 µM (≈ 56.6 µg/mL). In turn, `Cc1nc(NC2(c3ccc(C(F)(F)F)cc3)CC2)c2cnn(C)c2n1` gave a Vd in the series with Rattus norvegicus [2] of 3.78 L/kg. Also, the apparent permeability coefficient (Papp) in the series on rat MDR1A was 0.82 to 26.7 ×10⁻⁶ cm/s. Further, the AUC/dose in the series with Rattus norvegicus [3] amounted to 0.24 µM·kg·h/mg. For the same compound, the apparent clearance (CL/F) in series [4] is 44.4 mL/min/kg. The half-life in series [5] was 1.34 h. Further, the bioavailability in series [6] was found to be 16.9%. `Cn1ncc2c(NCc3cccc(Cl)c3)nc(Cl)nc21` came in with a solubility in series [1] of 78 µM (≈ 24 µg/mL). `Cn1ncc2c(NCc3ccccc3Cl)nc(Cl)nc21` registered a solubility in series [1] of 44 µM (≈ 13.6 µg/mL).

Compound `Cn1ncc2c(NC3(c4ccc(C(F)(F)F)cc4)CC3)nc(C3CC3)nc21` had a solubility in series [1] of 125 µM (≈ 46.7 µg/mL). On the same count and under the same terms, the result for `Cn1ncc2c(N3CCCC3c3ccc(C(F)(F)F)cc3)nc(Cl)nc21` (configuration not stated) reads 139 µM (≈ 53.1 µg/mL). Take `FC(F)(F)c1ccc(C2(Nc3nc(Cl)nc4[nH]ncc34)CC2)cc1`: the Vd in the series on Rattus norvegicus [2] amounted to 4.64 L/kg. The Papp with rat MDR1A fell in the range of 1.63 to 26.5 ×10⁻⁶ cm/s. Moreover, the AUC/dose in the series with Rattus norvegicus [3] came to 6.59 µM·kg·h/mg. Besides, the CL/F in series [4] worked out at 8.44 mL/min/kg. In series [1], this compound displayed a solubility of 105 µM (≈ 37.1 µg/mL). Further, the half-life in series [5] was 6.33 h. In series [6], the bioavailability stood at 146%.

`CNc1nc(Cl)nc2c1cnn2C` displayed a solubility in series [1] of 206 µM (≈ 40.7 µg/mL). Same read-out and setting: to `Cn1ncc2c(NCc3ccc(Cl)cc3)nc(Cl)nc21` belongs 145 µM (≈ 44.7 µg/mL).

What is called solubility is the concentration that dissolves in the medium under given conditions. Higher therefore signals much dissolved substance. In general, Papp refers to the rate of passage across a membrane or cell layer, normalised by area and donor concentration. A word on the CL/F: it is clearance divided by bioavailability, as obtained after extravascular dosing. One may read the half-life as the time needed for the level to fall by half in the phase considered. A lower half-life goes with fast loss.
